Counter-ions that a name gives are not always drawn. Like-named read-outs stand apart in the source and are kept apart here.
Legend:
[1] = target: T1, SARS-CoV-2 PLpro (nsp3 1564–1878) (Severe acute respiratory syndrome coronavirus 2, UniProt P0DTD1); assay: biochemical; design: FRET-quenched peptide (Pro3) cleavage by PLpro, 10 min pre-incubation, slope over 20 min, normalised to no-compound control; conditions: low concentration screen
[2] = target: T1, SARS-CoV-2 PLpro (nsp3 1564–1878); assay: biochemical; design: FRET-quenched peptide (Pro3) cleavage by PLpro, 10 min pre-incubation, slope over 20 min, normalised to no-compound control; conditions: high concentration screen
[3] = Well no.=1892, read-out: % of control remaining
[4] = Well no.=4548, read-out: % of control remaining
[5] = Well no.=4338, read-out: % of control remaining
[6] = Well no.=2001, read-out: % of control remaining
[7] = Well no.=5347, read-out: % of control remaining
[8] = Well no.=702, read-out: % of control remaining
[9] = Well no.=5097, read-out: % of control remaining
[10] = Well no.=1366, read-out: % of control remaining
[11] = Well no.=5027, read-out: % of control remaining
[12] = Well no.=586, read-out: % of control remaining
[13] = Well no.=101, read-out: % of control remaining
[14] = Well no.=2285, read-out: % of control remaining
[15] = Well no.=5363, read-out: % of control remaining
[16] = Well no.=155, read-out: % of control remaining
[17] = Well no.=7087, read-out: % of control remaining
[18] = Well no.=1267, read-out: % of control remaining
[19] = Well no.=7265, read-out: % of control remaining
[20] = Well no.=8152, read-out: % of control remaining
[21] = Well no.=2582, read-out: % of control remaining
[22] = read-out: % of control remaining, Well no.=149
[23] = Well no.=4913, read-out: % of control remaining
[24] = Well no.=7934, read-out: % of control remaining
[25] = Well no.=5851, read-out: % of control remaining
[26] = Well no.=6463, read-out: % of control remaining
[27] = Well no.=4517, read-out: % of control remaining
[28] = Well no.=965, read-out: % of control remaining
[29] = Well no.=2370, read-out: % of control remaining
[30] = Well no.=5408, read-out: % of control remaining
[31] = Well no.=8708, read-out: % of control remaining
[32] = Well no.=349, read-out: % of control remaining
[33] = Well no.=188, read-out: % of control remaining
[34] = Well no.=8122, read-out: % of control remaining
[35] = Well no.=1520, read-out: % of control remaining
[36] = Well no.=4712, read-out: % of control remaining
[37] = Well no.=1302, read-out: % of control remaining
[38] = Well no.=2152, read-out: % of control remaining

## Cc1cc2c(OCC(CNC(C)(C)C)OC(=O)c3ccccc3)cccc2[nH]1 (stereo not drawn) [Bopindolol]
[1]; [3]
  remaining activity at 1.25 µM: 96.2%
[2]; [3]
  remaining activity at 3.75 µM: 97.2%

## CCCCC/C=C\C/C=C\C/C=C\CCCCCCC(=O)O [8(Z), 11(Z), 14(Z)-Eicosatrienoic Acid]
[1]; [4]
  remaining activity at 1.25 µM: 91.1%
[2]; [4]
  remaining activity at 3.75 µM: 96.4%

## CCCCC/C=C\C/C=C\CCCCCCCC(N)=O [Linoleamide]
[1]; [5]
  remaining activity at 1.25 µM: 101%
[2]; [5]
  remaining activity at 3.75 µM: 92.5%

## CCCCC(C#N)(Cn1cncn1)c1ccc(Cl)cc1 (stereo not drawn) [Myclobutanil]
[1]; [6]
  remaining activity at 1.25 µM: 105%
[2]; [6]
  remaining activity at 3.75 µM: 102%

## CCc1cc(C(N)=S)ccn1 [Ethionamide]
[1]; [7]
  remaining activity at 1.25 µM: 96.4%
[2]; [7]
  remaining activity at 3.75 µM: 95.4%

## C[N+](C)(C)CCCCCC[N+](C)(C)C [Hexamethonium bromide]
[1]; [8]
  remaining activity at 1.25 µM: 98.3%
[2]; [8]
  remaining activity at 3.75 µM: 100%

## C#Cc1cccc(Nc2ncnc3cc(OC)c(OCCCCCCC(=O)NO)cc23)c1 [CUDC-101]
[1]; [9]
  remaining activity at 1.25 µM: 104%
[2]; [9]
  remaining activity at 3.75 µM: 108%

## CC(C)(C)NCC(O)c1ccc(O)c(CO)c1 (stereo not drawn) [Salbutamol]
[1]; [10]
  remaining activity at 1.25 µM: 101%
[2]; [10]
  remaining activity at 3.75 µM: 101%

## COc1cc2ncnc(Nc3ccc(F)c(Cl)c3)c2cc1NC(=O)/C=C/CN1CCCCC1 [Dacomitinib (PF299804,PF-00299804)]
[1]; [11]
  remaining activity at 1.25 µM: 94.2%
[2]; [11]
  remaining activity at 3.75 µM: 95.4%

## OC[C@H]1NC[C@H](O)[C@@H](O)[C@@H]1O [1-Deoxynojirimycin hydrochloride]
[1]; [12]
  remaining activity at 1.25 µM: 102%
[2]; [12]
  remaining activity at 3.75 µM: 102%

## CCN(CC)CCCCCCCCOC(=O)c1cc(OC)c(OC)c(OC)c1 [TMB-8 hydrochloride]
[1]; [13]
  remaining activity at 1.25 µM: 104%
[2]; [13]
  remaining activity at 3.75 µM: 104%

## CN[C@@H]1[C@H](O[C@H]2[C@H](O[C@H]3[C@H](O)[C@@H](O)[C@H](N=C(N)N)[C@@H](O)[C@@H]3N=C(N)N)O[C@@H](C)[C@]2(O)C=O)O[C@@H](CO)[C@H](O)[C@H]1O [Streptomycin]
[1]; [14]
  remaining activity at 1.25 µM: 97.7%
[2]; [14]
  remaining activity at 3.75 µM: 97.7%

## CCCCCN(C)CCC(O)(P(=O)(O)O)P(=O)(O)O [Ibandronate sodium]
[1]; [15]
  remaining activity at 1.25 µM: 90.7%
[2]; [15]
  remaining activity at 3.75 µM: 89.7%

## Nc1ncn([C@@H]2O[C@H](CO)[C@@H](O)[C@H]2O)c(=O)n1 [5-azacytidine]
[1]; [16]
  remaining activity at 1.25 µM: 95.5%
[2]; [16]
  remaining activity at 3.75 µM: 96.6%

## CC[C@@H](Nc1c(Nc2cccc(C(=O)N(C)C)c2O)c(=O)c1=O)c1ccc(C)o1 [SCH 527123]
[1]; [17]
  remaining activity at 1.25 µM: 102%
[2]; [17]
  remaining activity at 3.75 µM: 97.3%

## O=C(O)c1cccnc1C(=O)O [Quinolinic acid]
[1]; [18]
  remaining activity at 1.25 µM: 105%
[1]; [19]
  remaining activity at 1.25 µM: 96.1%
[2]; [18]
  remaining activity at 3.75 µM: 109%
[2]; [19]
  remaining activity at 3.75 µM: 94.7%

## O=C(Nc1ccc(O)cc1)c1ccccc1O [Osalmid]
[1]; [20]
  remaining activity at 1.25 µM: 100%
[2]; [20]
  remaining activity at 3.75 µM: 100%

## Cc1cc(I)ccc1Nc1c(C(=O)NOCC2CC2)cc(F)c(F)c1F [PD 198306 - N-(Cyclopropylmethoxy)-3,4,5-trifluoro-2-[(4-iodo-2-methylphenyl)amino]-benzamide]
[1]; [21]
  remaining activity at 1.25 µM: 92.1%
[2]; [21]
  remaining activity at 3.75 µM: 87.7%

## Nc1ccncc1 [4-Aminopyridine]
[1]; [22]
  remaining activity at 1.25 µM: 104%
[2]; [22]
  remaining activity at 3.75 µM: 104%

## Cc1ccc(C(=O)Nc2ccc(CN3CCN(C)CC3)c(C(F)(F)F)c2)cc1C#Cc1cnc2cccnn12 [Ponatinib (AP24534)]
[1]; [23]
  remaining activity at 1.25 µM: 98.1%
[2]; [23]
  remaining activity at 3.75 µM: 95.4%

## C[C@]1(Cn2ccnn2)[C@H](C(=O)O)N2C(=O)C[C@H]2S1(=O)=O [Tazobactam]
[1]; [24]
  remaining activity at 1.25 µM: 97.1%
[2]; [24]
  remaining activity at 3.75 µM: 103%

## O=C(O)COc1ccc(C(=O)c2cccs2)c(Cl)c1Cl [Tienilic Acid]
[1]; [25]
  remaining activity at 1.25 µM: 105%
[2]; [25]
  remaining activity at 3.75 µM: 102%

## Cc1nc2c([nH]1)-c1ccccc1N(C(=O)c1ccc(NC(=O)c3ccccc3-c3ccccc3)cc1)CC2 [Conivaptan (hydrochloride)]
[1]; [26]
  remaining activity at 1.25 µM: 99.7%
[2]; [26]
  remaining activity at 3.75 µM: 101%

## CCCCC(C)(C)[C@H](O)/C=C/[C@H]1[C@H](O)CC(=O)[C@@H]1C/C=C\CCCC(=O)O [16,16-Dimethyl-prostaglandin E2]
[1]; [27]
  remaining activity at 1.25 µM: 96.1%
[2]; [27]
  remaining activity at 3.75 µM: 99.3%

## CC1CNCCN1S(=O)(=O)c1cccc2cnccc12 (stereo not drawn) [1-(5-Isoquinolinylsulfonyl)-2-methylpiperazine dihydrochloride]
[1]; [28]
  remaining activity at 1.25 µM: 104%
[2]; [28]
  remaining activity at 3.75 µM: 103%

## Nc1[nH]nc2nc3ccccc3nc12 [Cdk1/5 Inhibitor]
[1]; [29]
  remaining activity at 1.25 µM: 96.8%
[2]; [29]
  remaining activity at 3.75 µM: 98.7%

## COc1cc2c(c(OC)c1OC)-c1c(cc(OC)c(OC)c1OC)C[C@](C)(O)[C@@H](C)C2 [Schisandrin]
[1]; [30]
  remaining activity at 1.25 µM: 95.6%
[2]; [30]
  remaining activity at 3.75 µM: 101%

## CC1(C)S[C@@H]2[C@H](NC(=O)[C@H](N)c3ccccc3)C(=O)N2[C@H]1C(=O)O [Ampicillin (sodium)]
[1]; [31]
  remaining activity at 1.25 µM: 101%
[2]; [31]
  remaining activity at 3.75 µM: 101%

## CN1CCc2cccc3c2[C@H]1Cc1ccc(O)c(O)c1-3 [Apomorphine hydrochloride hemihydrate]
[1]; [32]
  remaining activity at 1.25 µM: 99.6%
[2]; [32]
  remaining activity at 3.75 µM: 103%

## CC(=O)OCC1=C(C(=O)O)N2C(=O)[C@@H](NC(=O)CSc3ccncc3)[C@H]2SC1 [Cephapirin sodium]
[1]; [33]
  remaining activity at 1.25 µM: 101%
[2]; [33]
  remaining activity at 3.75 µM: 99.7%

## COc1ccc2c(c1OCc1ccccc1)C[C@@H](C(=O)O)N(C(=O)C(c1ccccc1)c1ccccc1)C2 [Olodanrigan]
[1]; [34]
  remaining activity at 1.25 µM: 100%
[2]; [34]
  remaining activity at 3.75 µM: 99.4%

## C[N+]1(C)C2CCC1CC(OC(=O)c1c[nH]c3ccccc13)C2 (stereo not drawn) [3-Tropanylindole-3-carboxylate methiodide]
[1]; [35]
  remaining activity at 1.25 µM: 91.9%
[2]; [35]
  remaining activity at 3.75 µM: 90.6%

## CS(=O)(=O)c1cccc(CNc2nc(Nc3ccc4c(c3)CCC(=O)N4)ncc2C(F)(F)F)c1 [PF 573228]
[1]; [36]
  remaining activity at 1.25 µM: 96.1%
[2]; [36]
  remaining activity at 3.75 µM: 101%

## COc1ccc(C2CNC(=O)C2)cc1OC1CCCC1 (stereo not drawn) [Rolipram]
[1]; [37]
  remaining activity at 1.25 µM: 102%
[1]; [38]
  remaining activity at 1.25 µM: 101%
[2]; [37]
  remaining activity at 3.75 µM: 103%
[2]; [38]
  remaining activity at 3.75 µM: 102%

— publication PMC8286840, “Identifying SARS-CoV-2 antiviral compounds by screening for small molecule inhibitors of Nsp3 papain-like protease” (Biochemical Journal, 2021)
